Data set [1] can be described thus: refractive index (Na D-line) (dimensionless). The note with it: 298.15 K; 101.33 kPa; Liquid; Standard Abbe refractometry.
For data set [2] the following is noted: Liquid, Ebulliometric method (Recirculating still).

The structures appear in SMILES notation. ± gives the expanded uncertainty stated by the source.

As usually defined, the refractive index is a measure of how strongly the sample bends light. Usually vapor or sublimation pressure stands for the pressure of vapour in equilibrium with the condensed phase.

`Cc1ccccc1C` [1,2-dimethylbenzene]: the refractive index in data set [1] is 1.5028 ± 0.0007.

For `CC(C)CC(C)(C)C` [2,2,4-trimethylpentane], in data set [1], the refractive index is listed as 1.3889 ± 0.0007.

For the molecule `C=C(C)CC(C)(C)C` [2,4,4-trimethyl-1-pentene], in data set [1], the refractive index is recorded as 1.4062 ± 0.0007.

Take `Cc1ccsc1` [3-methylthiophene]: the “vapor or sublimation pressure” value was determined as 15.43 ± 0.35 kPa in data set [2] (333.15 K); 21.8 ± 0.35 kPa in data set [2] (341.98 K); 30.23 ± 0.36 kPa in data set [2] (350.79 K); 40.33 ± 0.37 kPa in data set [2] (359.01 K); 50.31 ± 0.38 kPa in data set [2] (365.62 K); 61.23 ± 0.39 kPa in data set [2] (371.73 K). The “vapor or sublimation pressure” value in data set [2] (376.26 K) is given as 70.53 ± 0.4 kPa; in data set [2] (380.53 K) it was 80.35 ± 0.42 kPa; in data set [2] (384.69 K) it was 91 ± 0.43 kPa; in data set [2] (387.89 K), 100.02 ± 0.44 kPa. Besides, the refractive index in data set [1] was determined as 1.5172 ± 0.0007.

`C1CCCCC1` [cyclohexane]: in data set [1], the refractive index came out at 1.4235 ± 0.0007.

With `C=CCCCC` [hex-1-ene], the refractive index in data set [1] was found to be 1.3849 ± 0.0007.

Values taken from the NIST ThermoML archive (doi:10.1016/j.fluid.2009.02.010).
